From US12310963B2, “Pyrazole derivatives and use thereof” (Tarapeutics Science Inc., priority 2019, dated 2025) come the findings set out here.

For one assay, the system named is BaF3. Nature of the assay: Growth of parental BaF3 cells, Cell Titer-Glo, 72 h. The class given is cell-based. The following applies: Mus musculus. An excerpt: (§1) In this example, mouse primary B cell BaF3 (purchased from ATCC, U.S.A.) was used. In addition, in this example, mouse BaF3-tel-PDGFRα (stably expressing PDGFRα kinase), mouse BaF3-tel-PDGFRβ (stably expressing PDGFRβ kinase), BaF3-P210 (stably expressing ABL kinase), BaF3-P210-T315I (stably expressing ABL-T315I kinase), BaF3-FL-BRAF-V600E (stably expressing BRAF-V600E kinase), BaF3-TEL-cKIT (stably expressing cKIT kinase), BaF3-TEL-VEGFR2 (stably expressing VEGFR2 kinase), BaF3-TEL-FGFR2 (stably expressing FGFR2 kinase) were also used. The above-mentioned cell trains were all constructed in our laboratory by the method as follows. The sequences of human BCR-ABL (P210 or P210/T315I mutated), full-length BRAF-V600E, cKIT, VEGFR2, FGFR2, PDGFRα, PDGFRβ kinase region were amplified respectively via PCR, and inserted respectively into a MSCV-Puro vector (purchased from Clontech) having a N-terminal TEL fragment and/or NPM fragment and/or TPR fragment, and stably transferred into mouse BaF3 cells by the retroviral method, and the growth factor IL-3 was removed. Eventually, cell lines which are transferred into proteins depending on PDGFRα, PDGFRβ were obtained.
(§2) In this example, solutions of the test compound at different concentrations (0.000508 μM, 0.00152 μM, 0.00457 μM, 0.0137 μM, 0.0411 μM, 0.123 μM, 0.370 μM, 1.11 μM, 3.33 μM, 10 μM) were added to the above cells. The cells were incubated for 72 hours.
In general terms: Cellular ATP, detected with luciferase, serves as a proxy for viable cell number.

The subject of assay [1] is BaF3-tel-PDGFRβ (stably expressing PDGFRβ kinase). The assay can be described thus: Growth of BaF3-tel-PDGFRβ cells, Cell Titer-Glo, 72 h. The class given is cell-based, mouse.
Source text: as §1, §2

In assay [2] the test system is BaF3-tel-PDGFRα (stably expressing PDGFRα kinase). Nature of the assay: Growth of BaF3-tel-PDGFRα cells, Cell Titer-Glo, 72 h. The class given is cell-based, mouse.
Source text: as §1, §2

The test system of assay [3] is pulmonary arterial hypertension (PAH). Nature of the assay: Rat model of pulmonary arterial hypertension (PAH), monocrotaline-induced. In kind it is in vivo. The following applies: 50 mg/kg by gavage, 28 days. As for the experimental part: SCXK (SU) 2017-0001. These rats were fed with conventional pellet feeds (Jiangsu Xietong Bio. Co., Ltd.), and were raised in a clean animal room with 12h/12h light/dark cycle. The rats were fed with foods and drinking water on an ad libitum basis. The temperature was maintained at 20-26° C., and the relative humidity was 40-70%. 120 SD rats were divided into 24 cages with 5 rats per group. […] The animals were treated in strict accordance with animal ethics regulations throughout the experiment. According to the method described in “Pharmaceutical experimental animal models: Fabrication and application” and the Standard Operating Procedure for PAH Model Construction of Model Animal Center, rats were intraperitoneally injected with a solution of 1% monocrotaline (MCT, purchased from Sigma, U.S.A.) once at a dose of 35 mg/kg. On Day 7 after the first injection of MCT, MCT was injected again at a dose of 20 mg/kg. The rats in the normal control group were intraperitoneally injected with an equivalent amount of water as a blank solvent. The specific steps were as follows: After the rats in each of the cages were fasted for 8 hours, each of the rats was weighed and recorded for the basic body weight after fasting; based on the measured basic body weight for each of the rats, the amount of MCT required to be injected for each of the rats was calculated according to the modeling dose of 35 mg/kg; based on the amount of MCT required to be injected for each of the rats, the dose for injection of a 1% MCT solution was calculated; the rats were fixed in a holder and intraperitoneally injected with the 1% MCT solution at the calculated dose; the rats were returned to the cages for routine feeding after the injection. […] The blood gas analyzer was operated following the standard operation procedure. […] Each of the rats was administered by gavage once a day starting from the day of regrouping at Week 4. The rats in the negative control group were daily administered by gavage with an equal volume of methylcellulose as vehicle. The rats in each of the groups were administered by gavage for consecutive 4 weeks (i.e., 28 days). […] The rats were weighed after fasting overnight twice a week. The administration dosage was calculated based on the weighing results. […] After the rats were under anesthesia, the pulmonary arterial pressure and the right ventricular systolic pressure of rats were measured. […] The steps were as follows. A No. 3.5 umbilical vein catheter was connected to a system pressure transducer. A formulated solution of […] sodium (purchased from Sangon) was filled into the transducer and the catheter, and bubbles were discharged. The anesthetized rat was placed on a surgical anatomical plate that is adjustable in its temperature. The temperature of the plate was adjusted to be maintained at about 37° C. The rat was fixed in supine position. The neck skin was cut with scissors to the edge of the clavicle, followed by blunt dissection of subcutaneous tissues and muscles, exposing the right external jugular vein. The adipose tissue on the surface was removed with ophthalmic surgical scissors. The external jugular vein was ligated at the […] surgical thread, and a loose knot was made at the proximal end for reserve. The external jugular vein was gently lifted with ophthalmic tweezers and cut with ophthalmic scissors to make a “V” opening. The catheter was quickly inserted, and the loose knot at the proximal end was tightened slightly to prevent bleeding. […] The catheter was further inserted slowly forward, and entered into the pulmonary artery at about 5 cm. […] The blood was transferred into an anticoagulation tube, and loaded in a blood gas analyzer to determine the indexes of partial pressure of oxygen (pO2), partial pressure of carbon dioxide (pCO2) and blood oxygen saturation (SaO2) in the blood.

As for `CN1CCN(c2cncc(-c3cn(-c4cc(NC(=O)c5cncc(C(F)(F)F)c5)ccc4F)nn3)c2)CC1` [Compound 26, N-(4-fluoro-3-(4-(5-(4-methylpiperazin-1-yl)pyridin-3-yl)-1H-1,2,3-triazol-1-yl)phenyl)-5-(trifluoromethyl)nicotinamide], the values for the GI50 (in the assay on BaF3; in assay [1]; in assay [2]) were 4.74 µM, under 10 nM and under 10 nM, respectively.

In the case of `CN1CCN(c2cncc(-c3cn(-c4cc(NC(=O)c5cc(C(F)(F)F)ccn5)ccc4F)nn3)c2)CC1` [Compound 27, N-(4-fluoro-3-(4-(5-(4-methylpiperazin-1-yl)pyridin-3-yl)-1H-1,2,3-triazol-1-yl)phenyl)-4-(trifluoromethyl)picolinamide], the results for the GI50 (with BaF3; in assay [1]; in assay [2]) were 4.73 µM, under 10 nM and under 10 nM, respectively.

For the compound `CN1CCN(c2cncc(-c3cn(-c4cc(NC(=O)c5cccc(Cl)n5)ccc4F)nn3)c2)CC1` [Compound 28, 6-chloro-N-(4-fluoro-3-(4-(5-(4-methylpiperazin-1-yl)pyridin-3-yl)-1H-1,2,3-triazol-1-yl)phenyl)picolinamide], the GI50 is 3.9 µM in the assay with BaF3, under 10 nM in assay [1] and under 10 nM in assay [2].

As to `CN1CCN(c2cncc(-c3cn(-c4cc(NC(=O)c5cccc(F)n5)ccc4F)nn3)c2)CC1` [Compound 29, 6-fluoro-N-(4-fluoro-3-(4-(5-(4-methylpiperazin-1-yl)pyridin-3-yl)-1H-1,2,3-triazol-1-yl)phenyl)picolinamide], the results for the GI50 (in the assay on BaF3; in assay [1]; in assay [2]) were 2.84 µM, under 10 nM and under 10 nM, respectively.

Regarding `Cc1ccc(NC(=O)c2cccc(C(F)(F)F)n2)cc1-n1cc(-c2cncc(N3CC4(COC4)C3)c2)cn1` [Compound 32, N-(3-(4-(5-(2-oxa-6-aza-spiro[3.3]hept-6-yl]pyridin-3-yl)-1H-pyrazol-1-yl)-4-methylphenyl)-6-(trifluoromethyl)picolinamide], the GI50 in the assay with BaF3 was 9.2 µM; in assay [1], under 10 nM; in assay [2] it was under 10 nM.

`Cc1ccc(NC(=O)c2ccnc(C(F)(F)F)c2)cc1-n1cc(-c2cncc(N3CC4(COC4)C3)c2)cn1` [Compound 33, N-(3-(4-(5-(2-oxa-6-aza-spiro[3.3]hept-6-yl]pyridin-3-yl)-1H-pyrazol-1-yl)-4-methylphenyl)-2-(trifluoromethyl)isonicotinamide]: the results for the GI50 (with BaF3; in assay [1]; in assay [2]) were 6.49 µM, under 10 nM and under 10 nM, respectively.

Regarding `Cc1ccc(NC(=O)c2cncc(C(F)(F)F)c2)cc1-n1cc(-c2cncc(N3CC4(COC4)C3)c2)cn1` [Compound 34, N-(3-(4-(5-(2-oxa-6-aza-spiro[3.3]hept-6-yl]pyridin-3-yl)-1H-pyrazol-1-yl)-4-methylphenyl)-5-(trifluoromethyl)nicotinamide], the GI50 is over 10 µM in the assay with BaF3, under 10 nM in assay [1] and under 10 nM in assay [2].

`Cc1ccc(NC(=O)c2cc(C(F)(F)F)ccn2)cc1-n1cc(-c2cncc(N3CC4(COC4)C3)c2)cn1` [Compound 35, N-(3-(4-(5-(2-oxa-6-aza-spiro[3.3]hept-6-yl]pyridin-3-yl)-1H-pyrazol-1-yl)-4-methylphenyl)-4-(trifluoromethyl)picolinamide]: the GI50 in the assay on BaF3 was 5.84 µM; in assay [1], under 10 nM; in assay [2], under 10 nM.

With `Cc1ccc(NC(=O)c2cccc(Cl)n2)cc1-n1cc(-c2cncc(N3CC4(COC4)C3)c2)cn1` [Compound 36, N-(3-(4-(5-(2-oxa-6-aza-spiro[3.3]hept-6-yl]pyridin-3-yl)-1H-pyrazol-1-yl)-4-methylphenyl)-6-chloropicolinamide], the GI50 in the assay with BaF3 is 9.76 µM; in assay [1] it was under 10 nM; in assay [2], under 10 nM.

As for `Cc1ccc(NC(=O)c2cccc(F)n2)cc1-n1cc(-c2cncc(N3CC4(COC4)C3)c2)cn1` [Compound 37, N-(3-(4-(5-(2-oxa-6-aza-spiro[3.3]hept-6-yl]pyridin-3-yl)-1H-pyrazol-1-yl)-4-methylphenyl)-6-fluoropicolinamide], the GI50 in the assay with BaF3 is 9.85 µM; in assay [1] it was under 10 nM; in assay [2], under 10 nM.

As to `Cc1ccc(NC(=O)c2cccc(C(F)(F)F)n2)cc1-n1cc(-c2cncc(N3CC4(COC4)C3)c2)nn1` [Compound 38, N-(3-(4-(5-(2-oxa-6-aza-spiro[3.3]hept-6-yl]pyridin-3-yl)-1H-1,2,3-triazol-1-yl)-4-methylphenyl)-6-(trifluoromethyl)picolinamide], the results for the GI50 (in the assay on BaF3; in assay [1]; in assay [2]) were over 10 µM, under 10 nM and under 10 nM, respectively.

Regarding `Cc1ccc(NC(=O)c2ccnc(C(F)(F)F)c2)cc1-n1cc(-c2cncc(N3CC4(COC4)C3)c2)nn1` [Compound 39, N-(3-(4-(5-(2-oxa-6-aza-spiro[3.3]hept-6-yl]pyridin-3-yl)-1H-1,2,3-triazol-1-yl)-4-methylphenyl)-2-(trifluoromethyl)isonicotinamide], the GI50 with BaF3 is over 10 µM; in assay [1], under 10 nM; in assay [2], under 10 nM.

On to `Cc1ccc(NC(=O)c2cncc(C(F)(F)F)c2)cc1-n1cc(-c2cncc(N3CC4(COC4)C3)c2)nn1` [Compound 40, N-(3-(4-(5-(2-oxa-6-aza-spiro[3.3]hept-6-yl]pyridin-3-yl)-1H-1,2,3-triazol-1-yl)-4-methylphenyl)-5-(trifluoromethyl)nicotinamide], for which the GI50 in the assay on BaF3 is 9.99 µM; in assay [1] it was under 10 nM; in assay [2] it was under 10 nM.

As for `Cc1ccc(NC(=O)c2cc(C(F)(F)F)ccn2)cc1-n1cc(-c2cncc(N3CC4(COC4)C3)c2)nn1` [Compound 41, N-(3-(4-(5-(2-oxa-6-aza-spiro[3.3]hept-6-yl]pyridin-3-yl)-1H-1,2,3-triazol-1-yl)-4-methylphenyl)-4-(trifluoromethyl)picolinamide], the GI50 is 3.66 µM with BaF3, under 10 nM in assay [1] and under 10 nM in assay [2].

Consider `COc1ccccc1Oc1c(NS(=O)(=O)c2ccc(C(C)(C)C)cc2)nc(-c2ncccn2)nc1OCCO` [bosentan, reference compound], for which the “RVI (right ventricular hypertrophy index) decrease as compared with the negative control group” value in assay [3] was found to be 15.7%.

The term GI50 denotes the concentration giving 50% growth inhibition.
